{
  "source": "patent US20210123868A1",
  "about": "“REAGENT COMPOSITION FOR PH MEASUREMENT” (MIURA CO., LTD., priority 2018, published 2021)",
  "origin": "cited, not measured here",
  "data": [
    {"conditions": "value at 25° C.", "values": [
      {"compound": "alizarin yellow", "acid dissociation constant (pKa)": 11.06},
      {"compound": "Cc1cc(C2(c3cc(C)c(O)c(Br)c3)OS(=O)(=O)c3ccccc32)cc(Br)c1O", "note": "[bromocresol purple]", "acid dissociation constant (pKa)": 6.3},
      {"compound": "Cc1c(C2(c3cc(Br)c(O)c(Br)c3C)OS(=O)(=O)c3ccccc32)cc(Br)c(O)c1Br", "note": "[bromocresol green]", "acid dissociation constant (pKa)": 4.7}
    ]}
  ]
}
